Test results taken from the NIST ThermoML archive (doi:10.1016/j.tca.2016.03.009).
± gives the expanded uncertainty stated by the source.

Key:
[1] = DSC
[2] = Molar enthalpy of transition or fusion; settings: DSC

In the case of `CCCCOc1cc2c3cc(OCCCC)c(OCCCC)cc3c3cc(OCCCC)c(OCCCC)cc3c2cc1OCCCC` [2,3,6,7,10,11-hexabutoxytriphenylene], the Triple point temperature ([1]; Crystal) is reported as 360.35 ± 1 K, the Triple point temperature ([1]; Liquid crystal of unknown type) is reported as 417.95 ± 1 K and the “Molar enthalpy of transition or fusion” value ([2]; Crystal) is reported as 5.4 ± 0.174 kcal/mol. For the same molecule, the “Molar enthalpy of transition or fusion” value ([2]; Liquid crystal of unknown type) was 4.47 ± 0.141 kcal/mol.
